# Source: patent US20230312550A1, “N-(2-(4-CYANOTHIAZOLIDIN-3-YL)-2-OXOETHYL)-QUINOLINE-4-CARBOXAMIDES” (AstraZeneca AB, priority 2020, published 2023)
# What was measured:
# FAP = FAP (Homo sapiens (Human), UniProt Q12884); experiment: hFAP inhibition assay; type: biochemical; conditions: Ala-Pro-AMC 20 μM, n = 1 or geometric mean n = 2-3
# Description: 384 low volume black plates (Greiner #784076) were used. 4 μL, 0.48 nM enzyme solution (100 mM Tris HCl, 100 mM NaCl, 0.05% Chaps, pH 7.4) was added to 40 nL compounds (in DMSO) at 10 CR, 3 fold dilution series from 50 μM FAC. Plates were incubated for 15 min at rt in dark. 4 μL, 40 μM substrate solution (100 mM Tris HCl, 100 mM NaCl, 0.05% Chaps, pH 7.4) was added to each well. Plates were centrifuged at 1000 rpm and incubated for 30 min at rt in dark. The plates were read on a PHERAstar® reader with excitation 340 nm and emission 460 nm. Data were analyzed in Genedata Screener®. IC50 values were determined by plotting % inhibition versus log compound concentration and using a one site dose response model.
# [1] = target: human Fibroblast activation protein alpha (hFAP) (Homo sapiens (Human), UniProt Q12884); experiment: hFAP inhibition assay (tight binders); type: biochemical; conditions: Ala-Pro-AMC 20 μM, n = 1 or geometric mean n = 2-6; further: hFAP 2.4 pM
# Chain of human Fibroblast activation protein alpha (hFAP) (Q12884 38-760): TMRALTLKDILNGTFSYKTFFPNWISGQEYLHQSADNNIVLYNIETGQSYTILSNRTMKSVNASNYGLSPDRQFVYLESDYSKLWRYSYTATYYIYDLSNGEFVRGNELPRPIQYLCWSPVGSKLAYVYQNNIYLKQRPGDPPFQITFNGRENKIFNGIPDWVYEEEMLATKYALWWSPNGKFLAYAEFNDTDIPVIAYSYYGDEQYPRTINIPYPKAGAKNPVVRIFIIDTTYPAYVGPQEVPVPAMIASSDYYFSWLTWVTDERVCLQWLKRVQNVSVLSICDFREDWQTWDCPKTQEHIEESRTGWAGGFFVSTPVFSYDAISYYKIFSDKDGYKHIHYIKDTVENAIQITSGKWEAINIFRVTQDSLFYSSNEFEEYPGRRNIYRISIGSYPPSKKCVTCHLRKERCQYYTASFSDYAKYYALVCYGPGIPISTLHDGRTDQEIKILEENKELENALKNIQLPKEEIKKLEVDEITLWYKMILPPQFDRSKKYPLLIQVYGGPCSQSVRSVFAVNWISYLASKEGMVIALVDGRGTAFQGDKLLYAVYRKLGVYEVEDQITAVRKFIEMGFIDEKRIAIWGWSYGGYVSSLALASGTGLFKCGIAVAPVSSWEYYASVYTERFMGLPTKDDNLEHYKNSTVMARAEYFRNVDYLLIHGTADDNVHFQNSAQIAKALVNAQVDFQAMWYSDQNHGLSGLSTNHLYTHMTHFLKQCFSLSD
# Description: The plates were read on a PHERAstar® reader with excitation 340 nm and emission 460 nm. Data were analyzed in Genedata Screener®. IC50 values were determined by plotting % inhibition versus log compound concentration and using a one site dose response model.
# hFAP (M39-A757) = hFAP (M39-A757) (Homo sapiens (Human), UniProt Q12884); experiment: hFAP binding assay (surface plasmon resonance); conditions: SPR, 20° C.; for hFAP Binding assay k(off) / hFAP Binding assay k(on): single cycle kinetics; for Kd: n = 1 or geometric mean n = 2-4
# Chain of hFAP (M39-A757) (Q12884 39-757): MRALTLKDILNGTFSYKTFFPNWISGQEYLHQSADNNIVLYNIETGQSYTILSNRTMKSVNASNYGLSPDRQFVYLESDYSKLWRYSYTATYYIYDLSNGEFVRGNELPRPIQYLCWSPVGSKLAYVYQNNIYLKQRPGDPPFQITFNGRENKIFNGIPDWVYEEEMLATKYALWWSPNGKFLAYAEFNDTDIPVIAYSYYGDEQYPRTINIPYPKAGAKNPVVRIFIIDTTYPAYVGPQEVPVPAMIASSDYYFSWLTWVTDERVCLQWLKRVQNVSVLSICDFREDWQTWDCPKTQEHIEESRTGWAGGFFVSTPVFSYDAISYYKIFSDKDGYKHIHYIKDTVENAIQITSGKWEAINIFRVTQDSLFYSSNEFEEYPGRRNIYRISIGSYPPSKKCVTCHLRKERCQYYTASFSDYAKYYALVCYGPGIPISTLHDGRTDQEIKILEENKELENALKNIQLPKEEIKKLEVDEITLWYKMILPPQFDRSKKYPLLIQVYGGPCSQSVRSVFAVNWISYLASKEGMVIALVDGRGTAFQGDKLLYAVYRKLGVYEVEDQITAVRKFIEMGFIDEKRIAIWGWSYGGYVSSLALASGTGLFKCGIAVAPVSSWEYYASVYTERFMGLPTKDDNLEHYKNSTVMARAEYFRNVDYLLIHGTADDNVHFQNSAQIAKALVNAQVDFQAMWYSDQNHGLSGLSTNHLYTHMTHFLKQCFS
# [2] = target: Prolyl endopeptidase, Prolyl Oligopeptidase (hPREP) (Homo sapiens (Human), UniProt P48147); experiment: hPrep inhibition assay; type: biochemical; conditions: hPREP 0.6 nM, Z-Gly-Pro-amino-methylcoumarin 50 μM; read-out: PREP IC50
# Chain of Prolyl endopeptidase, Prolyl Oligopeptidase (hPREP) (P48147 whole entry): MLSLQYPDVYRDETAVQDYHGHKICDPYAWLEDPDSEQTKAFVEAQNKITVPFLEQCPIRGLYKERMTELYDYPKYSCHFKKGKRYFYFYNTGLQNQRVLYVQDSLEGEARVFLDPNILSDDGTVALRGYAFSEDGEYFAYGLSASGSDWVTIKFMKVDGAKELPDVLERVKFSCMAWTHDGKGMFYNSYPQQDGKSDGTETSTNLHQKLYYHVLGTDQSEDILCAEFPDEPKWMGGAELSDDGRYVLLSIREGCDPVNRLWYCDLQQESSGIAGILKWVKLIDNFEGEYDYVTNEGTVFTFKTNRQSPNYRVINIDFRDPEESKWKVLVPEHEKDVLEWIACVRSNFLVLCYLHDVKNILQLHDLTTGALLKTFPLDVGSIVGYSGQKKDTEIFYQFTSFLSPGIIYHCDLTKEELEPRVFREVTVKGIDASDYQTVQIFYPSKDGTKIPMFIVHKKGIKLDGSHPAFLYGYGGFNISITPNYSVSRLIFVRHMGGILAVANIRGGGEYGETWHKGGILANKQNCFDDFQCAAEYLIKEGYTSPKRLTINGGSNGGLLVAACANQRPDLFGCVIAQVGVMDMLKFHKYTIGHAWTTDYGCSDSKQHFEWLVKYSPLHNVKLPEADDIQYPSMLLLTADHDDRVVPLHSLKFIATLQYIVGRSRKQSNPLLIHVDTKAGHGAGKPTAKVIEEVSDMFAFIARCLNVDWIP
# In short: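 Recombinant human PREP at 0.6 nM final with Z-Gly-Pro-AMC substrate at 50 μM final in Tris-HCl pH 7.5, NaCl, Triton X-100, glutathione; 15 min rt preincubation then 20 min rt reaction in dark. AMC fluorescence (ex 340/em 460 nm); IC50 from one-site dose-response fit of % inhibition.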
# Kinetic solubility = conditions: kinetic from dmso stock, Solubility, kinetic solubility; n = 1 or average of n = 2-3
# Description: Kinetic solubility was measured as described in Comput Aided Mol Des 2015, 29, 795.
# [3] = Metabolic stability in rat hepatocytes (rHep); conditions: n = 1 or geometric mean of n = 2-3
# [4] = Metabolic stability in human liver microsomes (HLM); conditions: human, HLM CLint, n = 1 or average of n = 2-3
# Description: Metabolic stability in HLM was measured as described in J Comput Aided Mol Des 2015, 29, 795.
# Chain of FAP (Q12884 38-760): as the sequence (Q12884 38-760) above
Compound,IC50 (FAP; hFAP […]) [nM],IC50 [1] [nM],hFAP Binding assay k(off) (hFAP (M39-A757)) [s⁻¹],hFAP Binding assay k(on) (hFAP (M39-A757)) [M⁻¹ s⁻¹],Kd (hFAP (M39-A757)) [nM],IC50 [2] [nM],solubility (Kinetic solubility) [µM],rHep CLint [3] [μL/min/1E6],microsomal CLint [4] [µL/min/mg],IC50 (FAP; hFAP 0.24 nM) [nM]
"N#C[C@@H]1CSCN1C(=O)CNC(=O)c1ccnc2ccc(N3CC4CCCC4C3)cc12 (stereo partly drawn) [Example 53, N-(2-((R)-4-Cyanothiazolidin-3-yl)-2-oxoethyl)-6-(hexahydrocyclopenta[c]pyrrol-2(1H)-yl)quinoline-4-carboxamide]",0.27,0.18,0.000050,680000,0.074,170,2.6,71,120,
"CC1(F)CCN(c2ccc3nccc(C(=O)NCC(=O)N4CSC[C@H]4C#N)c3c2)CC1 [Example 34, (R)—N-(2-(4-Cyanothiazolidin-3-yl)-2-oxoethyl)-6-(4-fluoro-4-methyl-piperidin-1-yl)quinoline-4-carboxamide]",0.27,0.22,0.000082,2200000,0.057,430,770,33,38,
"N#C[C@@H]1CSCN1C(=O)CNC(=O)c1ccnc2ccc(N3CC(F)(F)C3)cc12 [Example 23, (R)—N-(2-(4-Cyanothiazolidin-3-yl)-2-oxoethyl)-6-(3,3-difluoroazetidin-1-yl)quinoline-4-carboxamide]",0.31,0.2,0.00018,2100000,0.085,160,63,27,25,
"N#C[C@@H]1CSCN1C(=O)CNC(=O)c1ccnc2ccc(N3CCSCC3)cc12 [Example 3, (R)—N-(2-(4-Cyanothiazolidin-3-yl)-2-oxoethyl)-6-thiomorpholinoquinoline-4-carboxamide]",0.24,0.13,0.0004,4100000,0.095,690,700,28,75,
"N#C[C@@H]1CSCN1C(=O)CNC(=O)c1ccnc2ccc(N3CC[C@@H](F)C3)cc12 [Example 52, N-(2-((R)-4-Cyanothiazolidin-3-yl)-2-oxoethyl)-6-((R)-3-fluoropyrrolidin-1-yl)quinoline-4-carboxamide]",0.2,0.045,0.00019,6800000,0.044,400,57,21,22,
"CC1(CF)CCN(c2ccc3nccc(C(=O)NCC(=O)N4CSC[C@H]4C#N)c3c2)CC1 [Example 37, (R)—N-(2-(4-Cyanothiazolidin-3-yl)-2-oxoethyl)-6-(4-(fluoromethyl)-4-methylpiperidin-1-yl)quinoline-4-carboxamide]",0.22,0.19,0.000030,1000000,0.028,270,210,30,66,
"N#C[C@@H]1CSCN1C(=O)CNC(=O)c1ccnc2ccc(N3CC(C(F)(F)F)C3)cc12 [Example 26, (R)—N-(2-(4-Cyanothiazolidin-3-yl)-2-oxoethyl)-6-(3-(trifluoromethyl)-azetidin-1-yl)quinoline-4-carboxamide]",0.31,0.1,0.000065,1300000,0.056,580,15,7.6,31,
"C[C@H]1CC(F)(F)CCN1c1ccc2nccc(C(=O)NCC(=O)N3CSC[C@H]3C#N)c2c1 (mixture of isomers) [Example 44, N-(2-((R)-4-Cyanothiazolidin-3-yl)-2-oxoethyl)-6-((RS)-4,4-difluoro-2-methylpiperidin-1-yl)quinoline-4-carboxamide]",,0.074,0.000072,1700000,0.042,540,140,160,220,0.22

# The next lines start with the values.
IC50 (FAP; hFAP […]) [nM],IC50 [1] [nM],hFAP Binding assay k(off) (hFAP (M39-A757)) [s⁻¹],hFAP Binding assay k(on) (hFAP (M39-A757)) [M⁻¹ s⁻¹],Kd (hFAP (M39-A757)) [nM],IC50 [2] [nM],solubility (Kinetic solubility) [µM],rHep CLint [3] [μL/min/1E6],microsomal CLint [4] [µL/min/mg],IC50 (FAP; hFAP 0.24 nM) [nM],Compound
0.27,0.061,0.00019,2600000,0.087,30,40,91,> 300,,"N#C[C@@H]1CSCN1C(=O)CNC(=O)c1ccnc2ccc(N3CCCC[C@@H](F)C3)cc12 [Example 59, N-(2-((R)-4-Cyanothiazolidin-3-yl)-2-oxoethyl)-6-((R)-3-fluoroazepan-1-yl)quinoline-4-carboxamide]"
0.33,0.19,0.000059,4100000,0.03,400,690,30,180,,"C[C@H]1COCCCN1c1ccc2nccc(C(=O)NCC(=O)N3CSC[C@H]3C#N)c2c1 [Example 63, N-(2-((R)-4-Cyanothiazolidin-3-yl)-2-oxoethyl)-6-((S)-3-methyl-1,4-oxazepan-4-yl)quinoline-4-carboxamide]"
0.32,0.081,0.00021,1800000,0.11,260,400,10,16,,"N#C[C@@H]1CSCN1C(=O)CNC(=O)c1ccnc2ccc(-c3cccnc3)cc12 [Example 126, (R)—N-(2-(4-Cyanothiazolidin-3-yl)-2-oxoethyl)-6-(pyridin-3-yl)quinoline-4-carboxamide]"
0.33,0.19,,,0.086,140,19,19,49,,"Cc1ccc(C2CN(c3ccc4nccc(C(=O)NCC(=O)N5CSC[C@H]5C#N)c4c3)C2)cc1 [Example 183, (R)—N-(2-(4-Cyanothiazolidin-3-yl)-2-oxoethyl)-6-(3-(p-tolyl)azetidin-1-yl)quinoline-4-carboxamide]"
0.28,0.085,0.00015,1300000,0.12,610,130,29,56,,"C[C@@H]1CN(c2ccc3nccc(C(=O)NCC(=O)N4CSC[C@H]4C#N)c3c2)CCCO1 [Example 64, N-(2-((R)-4-Cyanothiazolidin-3-yl)-2-oxoethyl)-6-((R)-2-methyl-1,4-oxazepan-4-yl)quinoline-4-carboxamide]"
0.25,0.083,0.00025,6700000,0.036,440,11,63,55,,"C[C@@H]1CCN(c2ccc3nccc(C(=O)NCC(=O)N4CSC[C@H]4C#N)c3c2)C1 [Example 55, N-(2-((R)-4-Cyanothiazolidin-3-yl)-2-oxoethyl)-6-((R)-3-methylpyrrolidin-1-yl)quinoline-4-carboxamide]"
0.22,0.062,0.00023,6200000,0.045,300,13,49,57,,"C[C@H]1CCN(c2ccc3nccc(C(=O)NCC(=O)N4CSC[C@H]4C#N)c3c2)C1 [Example 54, N-(2-((R)-4-Cyanothiazolidin-3-yl)-2-oxoethyl)-6-((S)-3-methylpyrrolidin-1-yl)quinoline-4-carboxamide]"
